Measurements reported in ChEMBL document CHEMBL5726257, “Sphingosine 1-phosphate receptor antagonists” (2017).

Legend:
[1] = target: Sphingosine 1-phosphate receptor 2 (Homo sapiens, UniProt O95136); test: (§1) In Vitro Binding Assay: I. Master Stock SolutionUnless specified otherwise, the sample compounds were diluted in 100% anhydrous DMSO including all dilutions. The compounds were tested as the citrate salt (1 equivalent per molecule). If the sample compound is provided in a different solvent all master stock dilutions are performed in the specified solvent. All control wells contained identical solvent final concentrations as the sample compound wells.II. Compound Plate AssayThe sample compounds were transferred from a master stock solution into a daughter plate that was used in the assay. Each sample compound was diluted into an assay buffer (1×HBSS with 20 mM HEPES, 2.5 mM Probenecid, and 0.4% Free Fatty Acid BSA) at an appropriate concentration to obtain final specified concentrations.III. Antagonist Assay FormatUsing the EC80 values that were determined real-time, stimulated all pre-incubated sample compounds and reference antagonists (if applicable) were compared with the EC80 values of reference agonist. These were read for 180 seconds using the […] (This assay added reference agonist to respective wells-then fluorescences measurements were collected to calculate IC50 values).
Chain of Sphingosine 1-phosphate receptor 2 (O95136 whole entry): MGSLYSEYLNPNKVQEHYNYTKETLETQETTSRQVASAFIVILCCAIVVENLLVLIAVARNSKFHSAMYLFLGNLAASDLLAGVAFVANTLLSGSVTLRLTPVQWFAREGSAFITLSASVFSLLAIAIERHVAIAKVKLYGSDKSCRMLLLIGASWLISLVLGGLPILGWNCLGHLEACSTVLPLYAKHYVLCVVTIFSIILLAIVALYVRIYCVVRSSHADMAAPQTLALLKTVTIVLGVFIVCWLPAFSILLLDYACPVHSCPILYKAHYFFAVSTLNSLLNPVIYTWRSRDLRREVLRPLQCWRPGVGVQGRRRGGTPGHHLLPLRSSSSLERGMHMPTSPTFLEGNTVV

[2] = target: Sphingosine 1-phosphate receptor 5 (Homo sapiens, UniProt Q9H228); test: as §1
Chain of Sphingosine 1-phosphate receptor 5 (Q9H228 whole entry): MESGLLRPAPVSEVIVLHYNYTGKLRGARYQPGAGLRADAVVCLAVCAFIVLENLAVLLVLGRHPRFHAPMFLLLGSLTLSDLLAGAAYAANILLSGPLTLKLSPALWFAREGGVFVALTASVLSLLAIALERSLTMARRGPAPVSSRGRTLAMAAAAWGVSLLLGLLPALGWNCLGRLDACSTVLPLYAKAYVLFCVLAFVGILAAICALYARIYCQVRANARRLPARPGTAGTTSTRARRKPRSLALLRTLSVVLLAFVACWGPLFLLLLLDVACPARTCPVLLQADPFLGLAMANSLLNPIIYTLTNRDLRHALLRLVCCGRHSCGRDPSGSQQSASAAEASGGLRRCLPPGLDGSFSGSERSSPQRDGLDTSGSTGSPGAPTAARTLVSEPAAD

SMILES	IC50 [1] [nM]	IC50 [2] [nM]
Cc1nn(C)c2nc(N(CCCO)NC(=O)Nc3cc(Cl)nc(Cl)c3)cc(C(C)C)c12	19	12
C=CCN(NC(=O)Nc1cc(Cl)nc(Cl)c1)c1cc(C(C)C)c2c(C)nn(C)c2n1	52	110
